Values quoted from earlier work, collected in patent US12377108B2 (Curantis UG, priority 2018, dated 2025).

Legend:
[1] = oral administration; first pass hepatic metabolism
[2] = of the activity of Δ9-THC

Structure (SMILES) | oral bioavailability [1] | activity relative to Δ9-THC [2]
C=C(C)[C@@H]1CCC(C)=C[C@H]1c1c(O)cc(CCCCC)cc1O [CBD, Cannabidiol] | < 5% | –
CCCCCc1cc(O)c2c(c1)OC(C)(C)c1ccc(C)cc1-2 [CBN, Cannabinol] | – | 10%
